Like-named read-outs stand apart in the source and are kept apart here.
Columns and labels:
[1] = test system: MV4;11 cells; experiment: Cell viability assay (CellTiter-Glo) in MV4;11 cells, alone or with gilteritinib; type: cell-based; conditions: MV4;11 cells, three days, CellTiter-Glo, read-out: MV4
[2] = test system: MOLM-13 cells; experiment: Cell viability assay (CellTiter-Glo) in MOLM-13 cells, alone or with gilteritinib; type: cell-based; conditions: Homo sapiens, MOLM-13, 72 h, MOLM-13 cells, three days, CellTiter-Glo
[3] = Homo sapiens, MV4-11, 72 h, compound alone (without gilteritinib), 11 IC50
[4] = Homo sapiens, MV4-11, 72 h, with gilteritinib 10 nM, 11 IC50 gilteritinib
[5] = compound alone (without gilteritinib), read-out: MOLM-13 IC50
[6] = with gilteritinib 20 nM, read-out: MOLM-13 IC50 gilteritinib

| SMILES | IC50 [1, 3] [nM] | IC50 [1, 4] [nM] | IC50 [2, 5] [nM] | IC50 [2, 6] [nM] | IC50 ([1]; compound alone (without gilteritinib), 11 IC50) [nM] |
| --- | --- | --- | --- | --- | --- |
| N#Cc1cccc2nc(-c3cnn([C@H]4C[C@H](CCCNc5ccc6c(c5)C(=O)N(C5CCC(=O)NC5=O)C6=O)C4)c3)cnc12 (stereo partly drawn) [GS-233, 2-(1-(trans-3-(3-((2-(2,6-Dioxopiperidin-3-yl)-1,3-dioxoisoindolin-5-yl)amino)propyl)cyclobutyl)-1H-pyrazol-4-yl)quinoxaline-5-carbonitrile] | 100 to 1000 | 10 to 100 | 100 to 1000 | 10 to 100 | – |
| O=C1CCC(N2C(=O)c3ccc(NCCC[C@H]4C[C@H](n5cc(-c6cnc7c(F)cccc7n6)cn5)C4)cc3C2=O)C(=O)N1 (stereo partly drawn) [GS-234, 2-(2,6-Dioxopiperidin-3-yl)-5-((3-(trans-3-(4-(5-fluoroquinoxalin-2-yl)-1H-pyrazol-1-yl)cyclobutyl)propyl)amino)isoindoline-1,3-dione] | < 10 | 10 to 100 | 100 to 1000 | 10 to 100 | – |
| O=C1CCC(N2C(=O)c3ccc(NCCC[C@H]4C[C@H](n5cc(-c6cnccn6)cn5)C4)cc3C2=O)C(=O)N1 (stereo partly drawn) [GS-235, 2-(2,6-Dioxopiperidin-3-yl)-5-((3-(trans-3-(4-(pyrazin-2-yl)-1H-pyrazol-1-yl)cyclobutyl)propyl)amino)isoindoline-1,3-dione] | < 10 | 100 to 1000 | > 1000 | 100 to 1000 | – |
| O=C1CCC(N2C(=O)c3ccc(NCCC[C@H]4C[C@H](n5cc(-c6cccc(C7CCOCC7)n6)cn5)C4)cc3C2=O)C(=O)N1 (stereo partly drawn) [GS-236, 2-(2,6-Dioxopiperidin-3-yl)-5-((3-(trans-3-(4-(6-(tetrahydro-2H-pyran-4-yl)pyridin-2-yl)-1H-pyrazol-1-yl)cyclobutyl)propyl)amino)isoindoline-1,3-dione] | 100 to 1000 | 10 to 100 | 100 to 1000 | 10 to 100 | – |
| CN1CCC(c2cccc(-c3cnn([C@H]4C[C@H](CCCNc5ccc6c(c5)C(=O)N(C5CCC(=O)NC5=O)C6=O)C4)c3)n2)CC1 (stereo partly drawn) [GS-237, 2-(2,6-Dioxopiperidin-3-yl)-5-((3-(trans-3-(4-(6-(1-methylpiperidin-4-yl)pyridin-2-yl)-1H-pyrazol-1-yl)cyclobutyl)propyl)amino)isoindoline-1,3-dione] | > 1000 | 100 to 1000 | > 1000 | 100 to 1000 | – |
| O=C1CCC(N2C(=O)c3ccc(NCCC[C@H]4C[C@H](n5cc(-c6cccc(C7CCNCC7)n6)cn5)C4)cc3C2=O)C(=O)N1 (stereo partly drawn) [GS-238, 2-(2,6-Dioxopiperidin-3-yl)-5-((3-(trans-3-(4-(6-(piperidin-4-yl)pyridin-2-yl)-1H-pyrazol-1-yl)cyclobutyl)propyl)amino)isoindoline-1,3-dione] | 100 to 1000 | 10 to 100 | 10 to 100 | 10 to 100 | – |
| O=C1CCC(N2C(=O)c3ccc(NCCC[C@H]4C[C@H](n5cc(-c6ccnc(N7CCOCC7)n6)cn5)C4)cc3C2=O)C(=O)N1 (stereo partly drawn) [GS-239, 2-(2,6-Dioxopiperidin-3-yl)-5-((3-(trans-3-(4-(2-morpholinopyrimidin-4-yl)-1H-pyrazol-1-yl)cyclobutyl)propyl)amino)isoindoline-1,3-dione] | 100 to 1000 | 10 to 100 | > 1000 | 10 to 100 | – |
| O=C1CCC(N2C(=O)c3ccc(NCCC[C@H]4C[C@H](n5cc(-c6nccc(N7CCOCC7)n6)cn5)C4)cc3C2=O)C(=O)N1 (stereo partly drawn) [GS-240, 2-(2,6-Dioxopiperidin-3-yl)-5-((3-(trans-3-(4-(4-morpholinopyrimidin-2-yl)-1H-pyrazol-1-yl)cyclobutyl)propyl)amino)isoindoline-1,3-dione] | 10 to 100 | < 10 | 100 to 1000 | 10 to 100 | – |
| O=C1CCC(N2C(=O)c3ccc(NCCC[C@H]4C[C@H](n5cc(-c6cccc(N7CCOCC7)c6)cn5)C4)cc3C2=O)C(=O)N1 (stereo partly drawn) [GS-241, 2-(2,6-Dioxopiperidin-3-yl)-5-((3-(trans-3-(4-(3-morpholinophenyl)-1H-pyrazol-1-yl)cyclobutyl)propyl)amino)isoindoline-1,3-dione] | 100 to 1000 | 100 to 1000 | > 1000 | 100 to 1000 | – |
| O=C1CCC(N2C(=O)c3ccc(NCCC[C@H]4C[C@H](n5cc(-c6ncccn6)cn5)C4)cc3C2=O)C(=O)N1 (stereo partly drawn) [GS-242, 2-(2,6-Dioxopiperidin-3-yl)-5-((3-(trans-3-(4-(pyrimidin-2-yl)-1H-pyrazol-1-yl)cyclobutyl)propyl)amino)isoindoline-1,3-dione] | > 1000 | 100 to 1000 | > 1000 | 100 to 1000 | – |
| O=C1CCC(N2C(=O)c3ccc(NCCC[C@H]4C[C@H](n5cc(-c6cnc7ccccc7n6)c(C(F)F)n5)C4)cc3C2=O)C(=O)N1 (stereo partly drawn) [GS-243, 5-((3-(trans-3-(3-(Difluoromethyl)-4-(quinoxalin-2-yl)-1H-pyrazol-1-yl)cyclobutyl)propyl)amino)-2-(2,6-dioxopiperidin-3-yl)isoindoline-1,3-dione] | 10 to 100 | < 10 | 10 to 100 | < 10 | – |
| Cc1nn([C@H]2C[C@H](CCCNc3ccc4c(c3)C(=O)N(C3CCC(=O)NC3=O)C4=O)C2)cc1-c1cccc(N2CCOCC2)n1 (stereo partly drawn) [GS-244, 2-(2,6-Dioxopiperidin-3-yl)-5-((3-(trans-3-(3-methyl-4-(6-morpholinopyridin-2-yl)-1H-pyrazol-1-yl)cyclobutyl)propyl)amino)isoindoline-1,3-dione] | 100 to 1000 | 10 to 100 | > 1000 | 10 to 100 | – |
| CN1CCN(c2cccc(-c3cnn([C@H]4C[C@H](CCCNc5ccc6c(c5)C(=O)N(C5CCC(=O)NC5=O)C6=O)C4)c3)n2)CC1 (stereo partly drawn) [GS-245, 2-(2,6-Dioxopiperidin-3-yl)-5-((3-(trans-3-(4-(6-(4-methylpiperazin-1-yl)pyridin-2-yl)-1H-pyrazol-1-yl)cyclobutyl)propyl)amino)isoindoline-1,3-dione] | – | 10 to 100 | > 1000 | 100 to 1000 | > 1000 |
| O=C1CCC(N2C(=O)c3ccc(NCCC[C@H]4C[C@H](n5cc(-c6cccc(N7CCOCC7)n6)c(C6CC6)n5)C4)cc3C2=O)C(=O)N1 (stereo partly drawn) [GS-246, 5-((3-(trans-3-(3-Cyclopropyl-4-(6-morpholinopyridin-2-yl)-1H-pyrazol-1-yl)cyclobutyl)propyl)amino)-2-(2,6-dioxopiperidin-3-yl)isoindoline-1,3-dione] | 100 to 1000 | 10 to 100 | > 1000 | 100 to 1000 | – |
| O=C1CCC(N2C(=O)c3ccc(NCCC[C@H]4C[C@H](n5cc(-c6cccc(N7CCNCC7)n6)cn5)C4)cc3C2=O)C(=O)N1 (stereo partly drawn) [GS-247, 2-(2,6-Dioxopiperidin-3-yl)-5-((3-(trans-3-(4-(6-(piperazin-1-yl)pyridin-2-yl)-1H-pyrazol-1-yl)cyclobutyl)propyl)amino)isoindoline-1,3-dione] | 100 to 1000 | < 10 | > 1000 | 10 to 100 | – |
| CN(C)c1cccc(-c2cnn([C@H]3C[C@H](CCCNc4ccc5c(c4)C(=O)N(C4CCC(=O)NC4=O)C5=O)C3)c2)n1 (stereo partly drawn) [GS-248, 5-((3-(trans-3-(4-(6-(Dimethylamino)pyridin-2-yl)-1H-pyrazol-1-yl)cyclobutyl)propyl)amino)-2-(2,6-dioxopiperidin-3-yl)isoindoline-1,3-dione] | 10 to 100 | 10 to 100 | > 1000 | 10 to 100 | – |
| O=C1CCC(N2C(=O)c3ccc(NCCC[C@H]4C[C@H](n5cc(-c6cccc(=O)[nH]6)cn5)C4)cc3C2=O)C(=O)N1 (stereo partly drawn) [GS-249, 2-(2,6-Dioxopiperidin-3-yl)-5-((3-(trans-3-(4-(6-oxo-1,6-dihydropyridin-2-yl)-1H-pyrazol-1-yl)cyclobutyl)propyl)amino)isoindoline-1,3-dione] | 100 to 1000 | > 1000 | > 1000 | 100 to 1000 | – |
| O=C1CCC(N2C(=O)c3ccc(NCCC[C@H]4C[C@H](n5cc(-c6cnc7c(C8CNC8)cccc7n6)cn5)C4)cc3C2=O)C(=O)N1 (stereo partly drawn) [GS-250, 5-((3-(trans-3-(4-(5-(Azetidin-3-yl)quinoxalin-2-yl)-1H-pyrazol-1-yl)cyclobutyl)propyl)amino)-2-(2,6-dioxopiperidin-3-yl)isoindoline-1,3-dione] | 100 to 1000 | 10 to 100 | 100 to 1000 | 10 to 100 | – |
| CNc1cccc(-c2cnn([C@H]3C[C@H](CCCNc4ccc5c(c4)C(=O)N(C4CCC(=O)NC4=O)C5=O)C3)c2)n1 (stereo partly drawn) [GS-251, 2-(2,6-Dioxopiperidin-3-yl)-5-((3-(trans-3-(4-(6-(methylamino)pyridin-2-yl)-1H-pyrazol-1-yl)cyclobutyl)propyl)amino)isoindoline-1,3-dione] | 100 to 1000 | 10 to 100 | 100 to 1000 | 10 to 100 | – |
| O=C1CCC(N2C(=O)c3ccc(NCCC[C@H]4C[C@H](n5cc(-c6cccc(N7CCC(O)CC7)n6)cn5)C4)cc3C2=O)C(=O)N1 (stereo partly drawn) [GS-252, 2-(2,6-Dioxopiperidin-3-yl)-5-((3-(trans-3-(4-(6-(4-hydroxypiperidin-1-yl)pyridin-2-yl)-1H-pyrazol-1-yl)cyclobutyl)propyl)amino)isoindoline-1,3-dione] | 100 to 1000 | > 1000 | > 1000 | > 1000 | – |
| Cc1ccnc(-c2cn([C@H]3C[C@H](CNc4ccc5c(c4)C(=O)N(C4CCC(=O)NC4=O)C5=O)C3)nc2C2CC2)c1 (stereo partly drawn) [GS-253, 5-(((trans-3-(3-Cyclopropyl-4-(4-methylpyridin-2-yl)-1H-pyrazol-1-yl)cyclobutyl)methyl)amino)-2-(2,6-dioxopiperidin-3-yl)isoindoline-1,3-dione] | < 10 | < 10 | 10 to 100 | < 10 | – |
